Values after ≈ are worked out from the molar mass of the structure shown.
Assays:
Coxsackie A21 virus = assay: Continuous Oral Feeding test in mice challenged with Coxsackie A21; assay type: in vivo; details: for X^2 (Continuous Oral Feeding, chi-square of deaths): 0.06 % in diet, 240 h, 0.06 % strength
rhinovirus type 5 (RV-5) = assay: Tissue culture antiviral testing, RV-5 (cytopathic effect, HeLa cells); assay type: cell-based; details: Enterovirus, HeLa cells, read-out: Lowest concentration of the compound necessary to cause a 50 percent reduction in cytopathic effect
rhinovirus type 2 (RV-2) = assay: Tissue culture antiviral testing, RV-2 (cytopathic effect, HeLa cells); assay type: cell-based; details: Enterovirus, HeLa cells, NA = not active at the standard test conditions, read-out: Lowest concentration of the compound necessary to cause a 50 percent reduction in cytopathic effect
Cox A21 = assay: Single Oral Dose test in mice challenged with Cox A21; assay type: in vivo, Swiss male mice; details: for X^2 (Single Oral Dose, chi-square of deaths vs virus control): 600 mg/kg, 3 h
rhinovirus type 8 (RV-8) = assay: Tissue culture antiviral testing, RV-8 (cytopathic effect, HeLa cells); assay type: cell-based; details: Enterovirus, HeLa cells, read-out: Lowest concentration of the compound necessary to cause a 50 percent reduction in cytopathic effect
[1] = Cytotoxicity in tissue culture (HeLa monolayers); assay type: cell-based; details: human; HeLa cells; observed at 48 and 72 hours post-treatment; read-out: Cytotoxicity (concentration of the compound found to be toxic to the cell)
[2] = system: Coxsackie A21 virus (Cox A21); assay: Tissue culture antiviral testing, Cox A21 (cytopathic effect, HeLa cells); assay type: cell-based; details: HeLa cells, NA = not active at the standard test conditions, read-out: Lowest concentration of the compound necessary to cause a 50 percent reduction in cytopathic effect
[3] = system: rhinovirus type 1A (RV-1A); assay: Tissue culture antiviral testing, RV-1A (cytopathic effect, HeLa cells); assay type: cell-based; details: Enterovirus, HeLa cells, NA = not active at the standard test conditions, read-out: Lowest concentration of the compound necessary to cause a 50 percent reduction in cytopathic effect
adenovirus (untyped) = assay type: cell-based; details: at the test concentrations
Coxsackie B2 = assay type: cell-based; details: enterovirus Coxsackie B2
rhinovirus type 17 = assay: Inhibition of multiplication, WI-38 cell culture tubes; assay type: cell-based; details: Enterovirus, 25 μg/ml, read-out: inhibition grade
Picornaviruses = assay: Antiviral activity against picornaviruses, overall (tissue culture and animal testing)
Experimental: Monolayered HeLa cells in 16 millimeter (mm) tissue culture dishes were treated with 1 ml of culture medium (Eagles medium supplemented with fetal calf serum) containing subject compound at an appropriate concentration or containing no compound at all. Culture mediums such as those described herein are more fully described in standard texts, as for example, Kuchler's Biochemical Methods in Cell Culture and Virology, Dowden, Hutchinson and Ross, Inc., Stroudsberg, Pa. (1977). Following treatment, cells were challenged with 0.05 ml of rhinovirus type 1A (RV-1A), rhinovirus type 2 (RV-2) or Coxsackie A21 virus (Cox A21) in culture medium. Some of the compounds were also tested against rhinovirus type 5 (RV-5), rhinovirus type 8 (RV-8) or rhinovirus type 64 (RV-64). Cell controls received no viruses.
In addition, some of the compounds were tested in animals utilizing the following procedure, hereinafter referred to as the "Single Oral Dose" test. […] Mice were observed daily for 7-10 days post-challenge and deaths recorded. […]
Some of the compounds were also tested in animals utilizing the following procedure, hereinafter referred to as the "Continuous Oral Feeding" test. […] Deaths in both control and experimental groups were recorded for the 10 days and the results analyzed by a chi-square test. […]

[4] = system: rhinovirus type 64 (RV-64); assay: Tissue culture antiviral testing, RV-64 (cytopathic effect, HeLa cells); assay type: cell-based; details: Enterovirus, HeLa cells, NA = not active at the standard test conditions, read-out: Lowest concentration of the compound necessary to cause a 50 percent reduction in cytopathic effect
[5] = system: parainfluenza NDV (Newcastle's disease virus); assay type: cell-based; details: at the test concentrations
rhinovirus type 56 = assay: Inhibition of multiplication, WI-38 cell culture tubes; assay type: cell-based; details: Enterovirus, 25 μg/ml, read-out: inhibition grade
influenza A = assay type: cell-based; details: at the test concentrations
influenza WSN = assay: Further tissue culture testing; assay type: cell-based; details: at the test concentrations
rhinovirus type 81 = assay: Inhibition of multiplication, WI-38 cell culture tubes; assay type: cell-based; details: Enterovirus, 25 μg/ml, read-out: inhibition grade
rhinovirus type 4 = assay: as above; assay type: cell-based; details: Enterovirus, 25 μg/ml, read-out: inhibition grade
rhinovirus type 21 = assay: as above; assay type: cell-based; details: Enterovirus, 25 μg/ml, read-out: inhibition grade
rhinovirus type 39 = assay: as above; assay type: cell-based; details: Enterovirus, 25 μg/ml, read-out: inhibition grade
rhinovirus type 75 = assay: as above; assay type: cell-based; details: Enterovirus, 25 μg/ml, read-out: inhibition grade
[6] = system: Hank's (untyped) rhinovirus; assay: as above; assay type: cell-based; details: Enterovirus, 25 μg/ml, read-out: inhibition grade
rhinovirus type 64 = assay: as above; assay type: cell-based; details: Enterovirus, 25 μg/ml, read-out: inhibition grade
rhinovirus type 6 = assay: as above; assay type: cell-based; details: Enterovirus, 25 μg/ml, read-out: inhibition grade
[7] = Acute oral toxicity in beagle dogs; details: dog, in vivo
Source text: Testing in beagle dogs indicated an acute oral toxicity of greater than 2 grams/kg.

rhinovirus type 10 = assay: Inhibition of multiplication, WI-38 cell culture tubes; assay type: cell-based; details: Enterovirus, 25 μg/ml, read-out: inhibition grade
rhinovirus type 29 = assay: as above; assay type: cell-based; details: Enterovirus, 25 μg/ml, read-out: inhibition grade
rhinovirus type 68 = assay: as above; assay type: cell-based; details: Enterovirus, 25 μg/ml, read-out: inhibition grade
[8] = system: feline calici virus, unconfirmed; assay type: cell-based; details: at the test concentrations
[9] = system: Herpes simplex virus type 1; assay type: cell-based; details: at the test concentrations
Coxsackie B4 = assay type: cell-based; details: enterovirus Coxsackie B4
rhinovirus type 60 = assay: Inhibition of multiplication, WI-38 cell culture tubes; assay type: cell-based; details: Enterovirus, 25 μg/ml, read-out: inhibition grade
parainfluenza 1 = assay type: cell-based; details: at the test concentrations
rhinovirus type 59 = assay: Inhibition of multiplication, WI-38 cell culture tubes; assay type: cell-based; details: Enterovirus, 25 μg/ml, read-out: inhibition grade
rhinovirus type 58 = assay: as above; assay type: cell-based; details: Enterovirus, 25 μg/ml, read-out: inhibition grade
influenze PR 8 = assay type: cell-based; details: at the test concentrations
rhinovirus type 8 = assay: Inhibition of multiplication, WI-38 cell culture tubes; assay type: cell-based; details: Enterovirus, 25 μg/ml, read-out: inhibition grade
rhinovirus type 19 = assay: as above; assay type: cell-based; details: Enterovirus, 25 μg/ml, read-out: inhibition grade
rhinovirus type 74 = assay: as above; assay type: cell-based; details: Enterovirus, 25 μg/ml, read-out: inhibition grade
Acute toxicity in rats = details: rat, in vivo
rhinovirus type 13 = assay: Inhibition of multiplication, WI-38 cell culture tubes; assay type: cell-based; details: Enterovirus, 25 μg/ml, read-out: inhibition grade

SMILES: N#Cc1cc([N+](=O)[O-])ccc1Oc1ccc(Cl)cc1Cl [Example 2, 2-(2,4-Dichlorophenoxy)-5-nitrobenzonitrile]
- X^2 (Continuous Oral Feeding, chi-square of deaths) (Coxsackie A21 virus): 1.38
- EC50 (rhinovirus type 5 (RV-5)): 2.5 µg/mL (≈ 8.09 µM)
- EC50 (rhinovirus type 2 (RV-2)): 0.625 µg/mL (≈ 2.02 µM)
- X^2 (Single Oral Dose, chi-square of deaths vs virus control) (Cox A21): 3.659
- EC50 (rhinovirus type 8 (RV-8)): 2.5 µg/mL (≈ 8.09 µM)
- MCC [1]: > 100 µg/mL
- EC50 [2]: 1.25 µg/mL (≈ 4.04 µM)
- EC50 [3]: 0.625 µg/mL (≈ 2.02 µM)

SMILES: N#Cc1cc([N+](=O)[O-])ccc1Oc1ccc(Cl)c(Cl)c1 [Example 1, 2-(3,4-Dichlorophenoxy)-5-nitrobenzonitrile]
- effect on virus multiplication (adenovirus (untyped)): did not affect the multiplication
- inhibitory activity (Coxsackie B2): displayed inhibitory activity
- inhibition at 25 µg/mL (rhinovirus type 17): ≥ 75%
- effectiveness against picornaviruses (Picornaviruses; general statement): particularly effective against Picornaviruses
- antiviral activity compared with 5-(3,4-dichlorophenoxy)-2-nitrobenzonitrile (Picornaviruses; standard tissue culture and animal testing): markedly greater antiviral activity
- EC50 [4]: 0.156 µg/mL (≈ 0.505 µM)
- antiviral activity in the "Continuous Oral Feeding" test (Coxsackie A21 virus; in words, 95% confidence level): exhibited antiviral activity
- X^2 (Continuous Oral Feeding, chi-square of deaths) (Coxsackie A21 virus): 23.62
- effect on virus multiplication [5]: did not affect the multiplication
- EC50 (rhinovirus type 5 (RV-5)): 0.5 µg/mL (≈ 1.62 µM)
- inhibition at 25 µg/mL (rhinovirus type 56): ≥ 75%
- effect on virus multiplication (influenza A): did not affect the multiplication
- effect on virus multiplication (influenza WSN): did not affect the multiplication
- EC50 (rhinovirus type 2 (RV-2)): 0.25 µg/mL (≈ 0.809 µM)
- inhibition at 25 µg/mL (rhinovirus type 81): ≥ 75%
- inhibition at 25 µg/mL (rhinovirus type 4): ≥ 75%
- inhibition at 25 µg/mL (rhinovirus type 21): ≥ 75%
- inhibition at 25 µg/mL (rhinovirus type 39): ≥ 75%
- antiviral activity in the "Single Oral Dose" test (Cox A21; in words, 95% confidence level): exhibited antiviral activity
- X^2 (Single Oral Dose, chi-square of deaths vs virus control) (Cox A21): 5.36
- EC50 (rhinovirus type 8 (RV-8)): 0.25 µg/mL (≈ 0.809 µM)
- MCC [1]: > 100 µg/mL
- inhibition at 25 µg/mL (rhinovirus type 75): ≥ 75%
- inhibition at 25 µg/mL [6]: ≥ 75%
- EC50 [2]: 0.25 µg/mL (≈ 0.809 µM)
- inhibition at 25 µg/mL (rhinovirus type 64): ≥ 75%
- inhibition at 25 µg/mL (rhinovirus type 6): ≥ 75%
- LD50 [7]: > 2000 mg/kg
- inhibition at 25 µg/mL (rhinovirus type 10): ≥ 75%
- inhibition at 25 µg/mL (rhinovirus type 29): ≥ 75%
- inhibition at 25 µg/mL (rhinovirus type 68): ≥ 75%
- effect on virus multiplication [8]: did not affect the multiplication
- effect on virus multiplication [9]: did not affect the multiplication
- inhibitory activity (Coxsackie B4): displayed inhibitory activity
- inhibition at 25 µg/mL (rhinovirus type 60): ≥ 75%
- effect on virus multiplication (parainfluenza 1): did not affect the multiplication
- inhibition at 25 µg/mL (rhinovirus type 59): ≥ 75%
- inhibition at 25 µg/mL (rhinovirus type 58): ≥ 75%
- effect on virus multiplication (influenze PR 8): did not affect the multiplication
- inhibition at 25 µg/mL (rhinovirus type 8): ≥ 75%
- inhibition at 25 µg/mL (rhinovirus type 19): ≥ 75%
- EC50 [3]: 0.5 µg/mL (≈ 1.62 µM)
- inhibition at 25 µg/mL (rhinovirus type 74): ≥ 75%
- LD50 (Acute toxicity in rats; ip, intraperitoneal, read-out: acute toxicity, intraperitoneal administration): > 2000 mg/kg
- LD50 (Acute toxicity in rats; oral, read-out: acute oral toxicity): ~5000 mg/kg
- inhibition at 25 µg/mL (rhinovirus type 13): ≥ 75%

SMILES: N#Cc1cc([N+](=O)[O-])ccc1Oc1ccc(Cl)cc1 [Example 4, 2-(4-Chlorophenoxy)-5-nitrobenzonitrile]
- X^2 (Continuous Oral Feeding, chi-square of deaths) (Coxsackie A21 virus): 10.61
- EC50 (rhinovirus type 5 (RV-5)): < 0.3 µg/mL
- EC50 (rhinovirus type 2 (RV-2)): ≤ 0.625 µg/mL
- X^2 (Single Oral Dose, chi-square of deaths vs virus control) (Cox A21): 0.252
- EC50 (rhinovirus type 8 (RV-8)): < 6 µg/mL
- MCC [1]: > 100 µg/mL
- EC50 [2]: 0.625 µg/mL (≈ 2.28 µM)
- EC50 [3]: ≤ 0.625 µg/mL

From patent publication US4332820A, “Substituted benzonitriles having antiviral activity” (The Dow Chemical Company, priority 1980, dated 1982)
